# Measured values: patent publication US10316064B2, “Teicoplanin analogs and uses thereof” (Academia Sinica, priority 2014, dated 2019)
# Read-outs that look alike come from different tables or passages of the source.
# Assays:
# Orf11*/Dbv8 = assay: Isothermal titration calorimetry (ITC) analysis of substrate-enzyme affinity; type: binding; details: ligand injected into protein solution (0.1 mM)
# Method: (§1) ITC thermograms of Orf11* versus CoA, acetyl-CoA, butyryl-CoA, hexanoyl-CoA, octanoyl-CoA, decanoyl-CoA, lauroyl-CoA, myristoyl-CoA, palmitoyl-CoA, stearoyl-CoA or Tei-pseudoaglycone. Each exothermic heat pulse corresponds to an injection of 2 μl of ligands (1 mM˜5 mM) into a protein solution (0.1 mM); integrated heat areas constitute a differential binding curve that was fitted with a standard single-site binding model (Origin 7.0, MicroCal iTC200).
# (§2) Protein expression, purification and confirmation of purity were performed according to standard protocols. Acyl-CoA analogs were chemically synthesized as described previously (Huang, Y. T. et al. In vitro characterization of enzymes involved in the synthesis of nonproteinogenic residue (2S,3S)-beta-methylphenylalanine in glycopeptide antibiotic mannopeptimycin. Chembiochem 10, 2480-2487, doi:10.1002/cbic.200900351 (2009); Li, T. L., Spiteller, D. & Spencer, J. B. Identification of a pentaketide stilbene produced by a type III polyketide synthase from Pinus sylvestris and characterisation of free coenzyme A intermediates. Chembiochem 10, 896-901, doi:10.1002/cbic.200800840 (2009)). Single-wavelength anomalous dispersion (SAD) and molecular replacement (MR) methods were used to solve structures of native and complex Orf11*/Dbv8. Mutants were made by using QuickChange®. Biochemical analyses for wild type protein and mutants were performed using LC-MS. Oligomerization states of the proteins in solution were determined by gel filtration chromatography and analytical ultracentrifugation (AUC). Substrate-enzyme affinity was determined using isothermal titration calorimetry (ITC). Biological assays were performed according standard protocols.
# ATCC 51559 = assay: MIC by broth microdilution (NCCLS); type: cell-based, E. faecalis
# Method: (§3) The MIC values were determined by the broth microdilution method, as recommended by the National Committee for Clinical Laboratory Standards (NCCLS). Briefly, overnight cultures of tested bacteria were suspended to a turbidity of 0.1 OD units (1˜5×10^8 CFU/ml). Microtiter plates containing serial dilutions of each antimicrobial agent (0, 1, 2, 4, 8, 16, 32, 64, and 128 μg/ml) were inoculated with each organism to yield the appropriate density (1˜5×10^5 CFU/ml) in a 200 μL final volume. The plates were incubated for 18˜22 h at 37° C.
# (§4) MICs were determined as concentrations at which no growth was observed against the strain tested. Experiments were performed in double duplicate. ATCC 29302/ATCC 33186: a standard strain; ATCC 51299: a low-level vancomycin-resistant (VanB type); ATCC 51559: a multidrug-resistant strain (ampicillin, ciprofloxacin, gentamicin, rifampin, teicoplanin and vancomycin, VanA type VRE); ATCC 700221: a strain resistant to vancomycin, VanA type VRE. ATCC 700802 is a strain resistant to gentamicins and vancomycin.
# E. faecalis (ATCC 51559) = assay: Mouse infection treatment study, ED50 (rescue of 50% infected mice); type: in vivo
# Method: The preliminary ED50 (potency) of the 2-decanoyl,6-octanoyl teicoplanin analog was determined as follows. 6-8 weeks BALB/c female mice were purchased from the National Laboratory Animal Breeding and Research Center, Taipei, Taiwan. Mice with average body weight of 25 to 30 g were subjected to infection via intraperitoneal (i.p.) injection with 1×10^10 cfu/mouse of E. faecalis (ATCC 51559) at day 0. For the treatment study, mice were randomly assigned into five groups at the start of the experiment and administered different amount of either vancomycin, teicoplanin, 2-C10-6-C8-Teicoplanin, or saline (as a blank control) by i.v. twice a day for two days (from day 1 to day 2, a total of 4 doses). The ED50 was determine by the concentration of compounds sufficient to rescue 50% infected mice.
# ATCC 700802 = assay: MIC by broth microdilution (NCCLS); type: cell-based
# Method: as §3, §4
# ATCC 700221 = assay: MIC by broth microdilution (NCCLS); type: cell-based
# Method: as §3, §4
# ATCC 51299 = assay: MIC by broth microdilution (NCCLS); type: cell-based
# Method: as §3, §4
# ATCC 33186 = assay: MIC by broth microdilution (NCCLS); type: cell-based
# Method: as §3, §4
# ATCC 29302 = assay: MIC by broth microdilution (NCCLS); type: cell-based
# Method: as §3, §4
# Orf11* = target: T1, Orf11* (Actinoplanes teichomyceticus, UniProt Q70AY4); assay: isothermal titration calorimetry (ITC) of acyl-CoA ligands versus Orf11* (FIG. 9); type: binding
# T1 sequence (Q70AY4 1-323): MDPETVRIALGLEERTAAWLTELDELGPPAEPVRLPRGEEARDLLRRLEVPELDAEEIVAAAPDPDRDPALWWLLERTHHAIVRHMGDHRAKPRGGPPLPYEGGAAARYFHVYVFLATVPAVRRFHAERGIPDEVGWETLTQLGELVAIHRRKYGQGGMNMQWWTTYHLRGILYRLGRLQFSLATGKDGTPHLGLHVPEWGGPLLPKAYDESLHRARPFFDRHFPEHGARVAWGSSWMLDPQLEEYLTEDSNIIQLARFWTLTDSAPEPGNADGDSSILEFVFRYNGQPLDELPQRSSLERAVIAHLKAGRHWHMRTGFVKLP
# Method: as §1
# The orf11* and dbv8 genes were amplified and subcloned into the expression vector pET28a(+). The clones were transformed into E. coli BL21(DE3) for protein over-expression. A typical procedure is described as follows: One liter of LB medium containing 50 mg/L kanamycin was inoculated with 10 mL of an overnight culture grown in LB medium (containing 50 mg/L kanamycin), induced with 1 mL 1.0M IPTG (to give 1.0 mM; exact concentrations varied between proteins) at an OD600 of 0.7, and grown for a further 8 hours at 16° C. Cells were harvested by centrifugation at 6000 rpm for 20 min at 4° C., resuspended in 30 mL binding buffer (50 mM Tris at pH 8.0, 500 mM NaCl, 10 mM imidazole, 10% glycerol) and disrupted by microfluidizer. The cell lysate was centrifuged at 18000 rpm for 30 minutes to remove cell debris. The supernatant was applied to a Ni^2+-NTA agarose resin column (2 mL, Novagen) pre-equilibrated with binding buffer. The column was washed sequentially with 20 mL of binding buffer and 10 mL washing buffer (50 mM Tris at pH 8.0, 500 mM NaCl, 50 mM imidazole, 10% glycerol). The bound protein then was eluted with 10 mL of elution buffer (50 mM Tris at pH 8.0, 500 mM NaCl, 250 mM imidazole, 10% glycerol). Gel filtration was performed using an Äkta FPLC system equipped with an S-200 Superdex column (Amersham Bioscience) under isocratic conditions (50 mM Tris at pH 8.0, 500 mM NaCl). The buffer was exchanged using Millipore centrifugal filters and HEPES buffer (50 mM, pH 8.0). Protein purity was determined by SDS-PAGE and Western blotting, and electrospray mass spectrometry (ESI-MS). Protein concentrations were estimated using the Bradford assay.
# as §2
# The GNAT domain in Orf11*/Dbv8 differs from the canonical GNAT fold as it lacks the first β strand, and the C-terminus extends with four additional helices (α10-α13). β-Strands β3 and β4 splay apart at C-termini, where Pro198 replaces a typical β-bulge. In a decanoyl-CoA-complexed binary structure (FIG. 2c), the decanoyl-CoA bends in an ‘S’ shape edging in the splayed fingers β3 and β4 (FIG. 8). […]
# [1] = ITC, injections of 2 μl of ligand (1 mM˜5 mM) into protein solution (0.1 mM), single-site binding model (Origin 7.0, MicroCal iTC200), Orf11* expressed from pET28a(+) in E. coli BL21(DE3), no mutation stated, read-out: dissociation constant (Kd)
# [2] = standard strain, 18~22 h at 37° C.
compound,measurement,setting,value
"CC(C)(COP(=O)(O)OP(=O)(O)OC[C@H]1O[C@@H](n2cnc3c(N)ncnc32)[C@H](O)[C@@H]1OP(=O)(O)O)[C@@H](O)C(=O)NCCC(=O)NCCS [CoA 5, coenzyme A]",binding to the enzyme (ITC),Orf11*/Dbv8,barely binds
"CN[C@H](CC(C)C)C(=O)N[C@H]1C(=O)N[C@@H](CC(N)=O)C(=O)N[C@H]2C(=O)N[C@H]3C(=O)N[C@H](C(=O)N[C@H](C(=O)O)c4cc(O)cc(O)c4-c4cc3ccc4O)[C@H](O)c3ccc(c(Cl)c3)Oc3cc2cc(c3O[C@@H]2O[C@H](CO)[C@@H](O)[C@H](O)[C@H]2O[C@H]2C[C@](C)(N)[C@H](O)[C@H](C)O2)Oc2ccc(cc2Cl)[C@H]1O [Vancomycin, vancomycin]",MIC,"ATCC 51559; Enterococcus, ATCC 51559 / VRE, 22 h, read-out: MIC ATCC 51559",1020 µg/mL
same,ED50,"E. faecalis (ATCC 51559); Enterococcus faecalis, ATCC51559, 48 h, read-out: ED50 against ATCC 51559",> 128 mg/kg
same,MIC,"ATCC 700802; 22 h, read-out: MIC ATCC 700802",64 µg/mL
same,MIC,"ATCC 700221; Enterococcus, ATCC 700221 / VRE, 22 h, read-out: MIC ATCC 700221",> 128 µg/mL
same,MIC,"ATCC 51299; 22 h, read-out: MIC ATCC 51299",> 64 µg/mL
same,MIC,"ATCC 33186; 22 h, read-out: MIC ATCC 33186",4 µg/mL
same,MIC,"ATCC 29302; 22 h, read-out: MIC ATCC 29302",1 µg/mL
CC(C)(COP(=O)(O)OP(=O)(O)OC[C@H]1O[C@@H](n2cnc3c(N)ncnc32)[C@H](O)[C@@H]1OP(=O)(O)O)[C@@H](O)C(=O)NCCC(=O)NCCSC(=O)c1ccccc1 [benzoyl-CoA],binding to the enzyme (ITC),Orf11*/Dbv8,does not bind
CCCC(=O)SCCNC(=O)CCNC(=O)[C@H](O)C(C)(C)COP(=O)(O)OP(=O)(O)OC[C@H]1O[C@@H](n2cnc3c(N)ncnc32)[C@H](O)[C@@H]1OP(=O)(O)O [butyryl-CoA],Kd,Orf11*,111 ± 23 µM
CCCCCCCCCC(=O)SCCNC(=O)CCNC(=O)[C@H](O)C(C)(C)COP(=O)(O)OP(=O)(O)OC[C@H]1O[C@@H](n2cnc3c(N)ncnc32)[C@H](O)[C@@H]1OP(=O)(O)O [decanoyl-CoA],Kd,Orf11*; [1],1 ± 0.1 µM
CCCCCC(=O)SCCNC(=O)CCNC(=O)[C@H](O)C(C)(C)COP(=O)(O)OP(=O)(O)OC[C@H]1O[C@@H](n2cnc3c(N)ncnc32)[C@H](O)[C@@H]1OP(=O)(O)O [hexanoyl-CoA],Kd,Orf11*; [1],85.6 ± 9 µM
CCCCCCCCCCCC(=O)SCCNC(=O)CCNC(=O)[C@H](O)C(C)(C)COP(=O)(O)OP(=O)(O)OC[C@H]1O[C@@H](n2cnc3c(N)ncnc32)[C@H](O)[C@@H]1OP(=O)(O)O [lauroyl-CoA],Kd,Orf11*; [1],4.1 ± 0.8 µM
CC(C)(COP(=O)(O)OP(=O)(O)OC[C@H]1O[C@@H](n2cnc3c(N)ncnc32)[C@H](O)[C@@H]1OP(=O)(O)O)[C@@H](O)C(=O)NCCC(=O)NCCSC(=O)CC(=O)O [malonyl-CoA],binding to the enzyme (ITC),Orf11*/Dbv8,does not bind
CC(C(=O)O)C(=O)SCCNC(=O)CCNC(=O)[C@H](O)C(C)(C)COP(=O)(O)OP(=O)(O)OC[C@H]1O[C@@H](n2cnc3c(N)ncnc32)[C@H](O)[C@@H]1OP(=O)(O)O (stereo partly drawn) [methylmalonyl-CoA],binding to the enzyme (ITC),Orf11*/Dbv8,does not bind
CCCCCCCCCCCCCC(=O)SCCNC(=O)CCNC(=O)[C@H](O)C(C)(C)COP(=O)(O)OP(=O)(O)OC[C@H]1O[C@@H](n2cnc3c(N)ncnc32)[C@H](O)[C@@H]1OP(=O)(O)O [myristoyl-CoA],Kd,Orf11*,5.9 ± 1.2 µM
CCCCCCCC(=O)SCCNC(=O)CCNC(=O)[C@H](O)C(C)(C)COP(=O)(O)OP(=O)(O)OC[C@H]1O[C@@H](n2cnc3c(N)ncnc32)[C@H](O)[C@@H]1OP(=O)(O)O [octanoyl-CoA],Kd,Orf11*; [1],1 ± 0.1 µM
CCCCCCCCCCCCCCCC(=O)SCCNC(=O)CCNC(=O)[C@H](O)C(C)(C)COP(=O)(O)OP(=O)(O)OC[C@H]1O[C@@H](n2cnc3c(N)ncnc32)[C@H](O)[C@@H]1OP(=O)(O)O [palmitoyl-CoA],Kd,Orf11*; [1],0.4 ± 0.08 µM
CCCCCCCCCCCCCCCCCC(=O)SCCNC(=O)CCNC(=O)[C@H](O)C(C)(C)COP(=O)(O)OP(=O)(O)OC[C@H]1O[C@@H](n2cnc3c(N)ncnc32)[C@H](O)[C@@H]1OP(=O)(O)O [stearoyl-CoA],Kd,Orf11*; [1],4.3 ± 0.8 µM
Tei pseudoaglycone [Tei pseudoaglycone 3],binding to the enzyme (ITC),Orf11*/Dbv8,barely binds
Teicoplanin,MIC ATCC 51559,"ATCC 51559; multidrug-resistant strain, VanA type VRE, 18~22 h at 37° C.",256 µg/mL
same,ED50 against ATCC 51559,"E. faecalis (ATCC 51559); BALB/c female mice infected i.p. with 1×10^10 cfu/mouse, i.v. twice a day for two days (4 doses), amount rescuing 50% infected mice, preliminary",>128 mg/kg
same,MIC ATCC 700802,"ATCC 700802; resistant to gentamicins and vancomycin, 18~22 h at 37° C.",0.5 µg/mL
same,MIC ATCC 700221,"ATCC 700221; resistant to vancomycin, VanA type VRE, 18~22 h at 37° C.",>128 µg/mL
same,MIC ATCC 51299,"ATCC 51299; low-level vancomycin-resistant (VanB type), 18~22 h at 37° C.",0.5 µg/mL
same,MIC ATCC 33186,ATCC 33186; [2],0.25 µg/mL
same,MIC ATCC 29302,ATCC 29302; [2],0.25 µg/mL
